Laboratory results as given in patent US8247211B2, “Glycopeptide antibiotics” (American Cyanamid Company, priority 2001, dated 2012).
In brackets after ≈: the same amount, converted by molar mass.

Columns and labels:
[1] = tested on: Streptococcus pneumoniae (GC 1894), penicillin resistant strain; experiment: Acute lethal infection in mice (ED50); format: in vivo; conditions: female CD-1 mice, intraperitoneal challenge, intravenous dose 30 min. after infection, 7 day survival ratios
How it was run: (§1)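 Groups of five female CD-1 mice per dose got intravenous antibiotic in saline or 5% dextrose half an hour after intraperitoneal infection sufficient to kill controls within 24-48 hr. Seven-day survival data from three experiments were combined to derive ED50.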

[2] = tested on: Staphylococcus aureus-SMITH (GC 4543); experiment: Acute lethal infection in mice (ED50); format: in vivo; conditions: female CD-1 mice, intraperitoneal challenge, intravenous dose 30 min. after infection, 7 day survival ratios
How it was run: as §1

[3] = tested on: Enterococcus faecalis (GC 6189), vancomycin resistant strain; experiment: Acute lethal infection in mice (ED50); format: in vivo; conditions: female CD-1 mice, intraperitoneal challenge, intravenous dose 30 min. after infection, 7 day survival ratios
How it was run: as §1

Escherichia coli = experiment: In vitro antibacterial evaluation: minimum inhibitory concentration (MIC), broth dilution method; format: cell-based; conditions: 5×10^5 CFU/mL, 18 hours at 35° C.
How it was run: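 Inoculum: 5×10^5 CFU/mL. Range: 64-0.06 μg/mL. Medium: Muller-Hinton II […]; NCCLS M7-A2 broth dilution. Endpoint: lowest concentration inhibiting growth. Strains include methicillin-, penicillin- and/or vancomycin-resistant clinical isolates.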

Staphylococcus sp. = experiment: as above; format: cell-based; conditions: for MIC Staphylococcus aureus (ATCC 29213): strain ATCC 29213; for MIC Staphylococcus aureus (GC 1131): strain GC 1131; for MIC Staphylococcus aureus (GC 4541): strain GC 4541; for MIC Staphylococcus aureus (GC 4542): strain GC 4542; for MIC Staphylococcus aureus-SMITH (GC 4543): strain GC 4543; for MIC Staphylococcus aureus (GC 4544): strain GC 4544; for MIC Staphylococcus aureus (GC 4545): strain GC 4545; for MIC Staphylococcus haemolyticus (GC 4546): strain GC 4546; for MIC Coagulase Negative Staphylococcus (GC 4547): strain GC 4547; for MIC Coagulase Negative Staphylococcus (GC 4548): strain GC 4548; for MIC Coagulase Negative Staphylococcus (GC 4549): strain GC 4549; for MIC Coagulase Negative Staphylococcus (GC 4551): strain GC 4551; for MIC Coagulase Negative Staphylococcus (ID-3941): strain ID-3941
How it was run: (§2)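 MIC by broth dilution in Mueller-Hinton II medium following NCCLS M7-A2. Inoculum was 5×10^5 CFU/mL and antibiotic was tested over 64-0.06 μg/mL. Gram-positive panel included clinical isolates resistant to methicillin, penicillin and/or vancomycin.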

Streptococcus sp. = experiment: as above; format: cell-based; conditions: broth dilution, 5×10^5 CFU/mL, 18 hours at 35° C.
How it was run: as §2

Enterococcus sp. = experiment: as above; format: cell-based; conditions: broth dilution, 5×10^5 CFU/mL, 18 hours at 35° C.
How it was run: as §2

[4] = broth dilution, 18 hours at 35° C.

CCCC(C)C1OCC2OC(OC3C(CO)OC(Oc4ccc(CC5NC(=O)C(C(C)c6ccccc6)NC(=O)CNC(=O)C(CO)NC(=O)C(C(O)C6CNC(=N)N6C6OC(CO)C(O)C(O)C6O)NC(=O)C(C(O)C6CNC(=N)N6)NC5=O)cc4)C(O)C3O)C(O)C(O)C2O1 (stereo not drawn) [Example 111]
median effective dose (ED50), Streptococcus pneumoniae (GC 1894) [1]: 0.03 mg/kg | median effective dose (ED50), Staphylococcus aureus-SMITH (GC 4543) [2]: 0.14 mg/kg | median effective dose (ED50), Enterococcus faecalis (GC 6189) [3]: 0.28 mg/kg | MIC Escherichia coli (ATCC 25922) (Escherichia coli): 32 µg/mL (≈ 23.2 µM) | MIC Staphylococcus aureus (ATCC 29213) (Staphylococcus sp.): 1 µg/mL (≈ 0.726 µM) | MIC Staphylococcus aureus (ATCC 29213) (Staphylococcus sp.; [4]): 1 µg/mL (≈ 0.726 µM) | MIC Staphylococcus aureus (GC 1131) (Staphylococcus sp.): 1 µg/mL (≈ 0.726 µM) | MIC Staphylococcus aureus (GC 1131) (Staphylococcus sp.; [4]): 1 µg/mL (≈ 0.726 µM) | MIC Staphylococcus aureus (GC 4541) (Staphylococcus sp.): 1 µg/mL (≈ 0.726 µM) | MIC Staphylococcus aureus (GC 4541) (Staphylococcus sp.; [4]): 1 µg/mL (≈ 0.726 µM) | MIC Staphylococcus aureus (GC 4542) (Staphylococcus sp.): 1 µg/mL (≈ 0.726 µM) | MIC Staphylococcus aureus (GC 4542) (Staphylococcus sp.; [4]): 1 µg/mL (≈ 0.726 µM) | MIC Staphylococcus aureus-SMITH (GC 4543) (Staphylococcus sp.; 18 hours at 35° C.): 1 µg/mL (≈ 0.726 µM) | MIC Staphylococcus aureus-SMITH (GC 4543) (Staphylococcus sp.; [4]): 1 µg/mL (≈ 0.726 µM) | MIC Staphylococcus aureus (GC 4544) (Staphylococcus sp.): 1 µg/mL (≈ 0.726 µM) | MIC Staphylococcus aureus (GC 4544) (Staphylococcus sp.; [4]): 1 µg/mL (≈ 0.726 µM) | MIC Staphylococcus aureus (GC 4545) (Staphylococcus sp.): 1 µg/mL (≈ 0.726 µM) | MIC Staphylococcus aureus (GC 4545) (Staphylococcus sp.; [4]): 1 µg/mL (≈ 0.726 µM) | MIC Staphylococcus haemolyticus (GC 4546) (Staphylococcus sp.): 1 µg/mL (≈ 0.726 µM) | MIC Staphylococcus haemolyticus (GC 4546) (Staphylococcus sp.; [4]): 1 µg/mL (≈ 0.726 µM) | MIC Coagulase Negative Staphylococcus (GC 4547) (Staphylococcus sp.): 0.5 µg/mL (≈ 0.363 µM) | MIC Coagulase Negative Staphylococcus (GC 4547) (Staphylococcus sp.; [4]): 0.5 µg/mL (≈ 0.363 µM) | MIC Coagulase Negative Staphylococcus (GC 4548) (Staphylococcus sp.): 1 µg/mL (≈ 0.726 µM) | MIC Coagulase Negative Staphylococcus (GC 4548) (Staphylococcus sp.; [4]): 1 µg/mL (≈ 0.726 µM) | MIC Coagulase Negative Staphylococcus (GC 4549) (Staphylococcus sp.): 0.5 µg/mL (≈ 0.363 µM) | MIC Coagulase Negative Staphylococcus (GC 4549) (Staphylococcus sp.; [4]): 0.5 µg/mL (≈ 0.363 µM) | MIC Coagulase Negative Staphylococcus (GC 4551) (Staphylococcus sp.): 1 µg/mL (≈ 0.726 µM) | MIC Coagulase Negative Staphylococcus (GC 4551) (Staphylococcus sp.; [4]): 1 µg/mL (≈ 0.726 µM) | MIC Coagulase Negative Staphylococcus (ID-3941) (Staphylococcus sp.): 1 µg/mL (≈ 0.726 µM) | MIC Coagulase Negative Staphylococcus (ID-3941) (Staphylococcus sp.; [4]): 1 µg/mL (≈ 0.726 µM) | MIC Streptococcus agalactiae (GC 4564) (Streptococcus sp.): 1 µg/mL (≈ 0.726 µM) | MIC Streptococcus pneumoniae (GC 4565) (Streptococcus sp.): 0.5 µg/mL (≈ 0.363 µM) | MIC Streptococcus pyogenes (ID-3187) (Streptococcus sp.): 0.5 µg/mL (≈ 0.363 µM) | MIC Enterococccus avium (GC 4558) (Enterococcus sp.): 2 µg/mL (≈ 1.45 µM) | MIC Enterococccus faecalis (ATCC 29212) (Enterococcus sp.): 2 µg/mL (≈ 1.45 µM) | MIC Enterococccus faecalis (GC 4552) (Enterococcus sp.): 2 µg/mL (≈ 1.45 µM) | MIC Enterococccus faecalis (GC 4553) (Enterococcus sp.): 2 µg/mL (≈ 1.45 µM) | MIC Enterococccus faecalis (GC 4554) (Enterococcus sp.): 2 µg/mL (≈ 1.45 µM) | MIC Enterococccus faecium (GC 2243) (Enterococcus sp.): 1 µg/mL (≈ 0.726 µM) | MIC Enterococccus faecium (GC 4556) (Enterococcus sp.): 2 µg/mL (≈ 1.45 µM) | MIC Enterococccus faecium (GC 4557) (Enterococcus sp.): 0.5 µg/mL (≈ 0.363 µM) | MIC Enterococcus faecalis (GC 2242) (Enterococcus sp.): 1 µg/mL (≈ 0.726 µM)
